Data published in patent publication US11897880B2, “7,8-dihydrobenzo[e]pyrido[3,4-c]azocine-2,5(3H,6H)-dione derivatives useful as a factor XIa inhibitors” (Janssen Pharmaceutica NV, priority 2021, dated 2024).
Where two headings read alike, the source gives them in different places.

Key:
Factor XIa = Factor XIa (Homo sapiens, UniProt P03951); experiment: Factor XIa inhibition assay utilizing a fluorophore-quencher pair peptide substrate (FLINT); assay type: biochemical; conditions: for IC50: read-out: FXIa IC50; for Ki: read-out: FXIa Ki
Chain of Factor XIa (P03951 388-625 limits assumed): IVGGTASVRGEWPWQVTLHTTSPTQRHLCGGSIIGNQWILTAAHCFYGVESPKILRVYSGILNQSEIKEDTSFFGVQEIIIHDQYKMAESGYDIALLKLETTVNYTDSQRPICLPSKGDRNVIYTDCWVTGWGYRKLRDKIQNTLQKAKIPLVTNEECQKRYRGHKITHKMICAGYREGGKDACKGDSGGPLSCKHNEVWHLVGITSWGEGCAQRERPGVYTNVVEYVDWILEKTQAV
Chain of Factor XIa (P03951 19-387 partner limits assumed): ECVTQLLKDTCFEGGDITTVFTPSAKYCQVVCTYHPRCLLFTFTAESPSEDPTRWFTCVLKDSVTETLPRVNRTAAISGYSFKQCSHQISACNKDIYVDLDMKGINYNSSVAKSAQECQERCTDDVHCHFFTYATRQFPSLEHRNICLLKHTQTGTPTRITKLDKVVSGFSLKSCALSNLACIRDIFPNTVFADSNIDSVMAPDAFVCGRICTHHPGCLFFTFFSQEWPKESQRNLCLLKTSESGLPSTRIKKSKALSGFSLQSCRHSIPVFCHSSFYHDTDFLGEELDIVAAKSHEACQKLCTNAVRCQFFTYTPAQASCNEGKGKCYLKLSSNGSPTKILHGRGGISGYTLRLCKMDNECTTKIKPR
In short: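 Enzyme preincubated 30 min at room temperature with compound (11-point 3-fold dilution, top 100 nM, 2% DMSO), then 15 μM 5Fam-KLTRAETV-K5Tamra substrate added. Buffer: 50 mM Tris pH 7.5, 100 mM NaCl, 5 mM CaCl2, 0.1 mg/mL BSA, 0.03% CHAPS. Fluorescence (485/520 nm) read kinetically over 30 min; IC50 from 4-parameter logistic fit.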

human plasma kallikrein = human plasma kallikrein (Homo sapiens, UniProt P03952); experiment: Kallikrein inhibition assay utilizing a quenched AMC peptide substrate (FLINT); assay type: biochemical; conditions: 30 min preincubation, 50 μM Z-Gly-Pro-Arg-AMC, 2 nM kallikrein
Chain of human plasma kallikrein (P03952 391-638 limits assumed): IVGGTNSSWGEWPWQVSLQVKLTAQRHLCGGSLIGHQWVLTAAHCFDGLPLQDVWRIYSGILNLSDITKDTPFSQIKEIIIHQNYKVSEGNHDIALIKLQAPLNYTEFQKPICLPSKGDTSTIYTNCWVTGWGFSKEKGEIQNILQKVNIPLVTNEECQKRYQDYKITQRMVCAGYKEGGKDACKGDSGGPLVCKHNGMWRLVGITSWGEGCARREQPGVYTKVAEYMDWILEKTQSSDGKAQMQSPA
Chain of human plasma kallikrein (P03952 20-390 partner limits assumed): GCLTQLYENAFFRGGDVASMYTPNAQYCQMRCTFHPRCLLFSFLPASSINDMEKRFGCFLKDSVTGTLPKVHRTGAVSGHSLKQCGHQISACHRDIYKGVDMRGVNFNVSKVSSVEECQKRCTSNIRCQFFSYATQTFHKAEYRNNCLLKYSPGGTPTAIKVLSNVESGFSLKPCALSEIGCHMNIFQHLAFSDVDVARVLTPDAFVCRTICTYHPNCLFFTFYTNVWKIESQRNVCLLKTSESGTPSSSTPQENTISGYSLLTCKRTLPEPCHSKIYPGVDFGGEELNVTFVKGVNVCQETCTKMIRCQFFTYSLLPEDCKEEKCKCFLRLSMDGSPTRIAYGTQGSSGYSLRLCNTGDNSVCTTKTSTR
In short: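 Human plasma kallikrein (2 nM final) was preincubated 30 min at room temperature with compound (11-point 3-fold dilution, top 1 μM, 2% DMSO) in pH 7.5 Tris buffer with CaCl2, BSA and CHAPS. Z-Gly-Pro-Arg-AMC (50 μM final) fluorescence was read at 340/440 nm every 5 min for 30 min. IC50 came from a 4-parameter logistic fit.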

[1] = 30 min preincubation, 5Fam-KLTRAETV-K5Tamra substrate 15 μM final, kinetic reads
[2] = cells that print μM themselves in the nM column
[3] = cells that print μM themselves in the nM column, same assay conditions

Row | Compound | IC50 (Factor XIa; [1]) [µM] | Ki (Factor XIa) [µM] | IC50 (human plasma kallikrein) [nM] | Ki (Factor XIa; [2]) [µM] | IC50 (Factor XIa; [3]) [µM]
1 | O=C1NC2(CC2)Cc2ccc(Cl)c(F)c2-c2cc(=O)n3c(c21)CC[C@H]3c1ncc(-c2ccc3scnc3c2)[nH]1 (stereo in doubt) [Compound 27, (S*)-12-(5-(benzo[d]thiazol-5-yl)-1H-imidazol-2-yl)-7-chloro-8-fluoro-13,14-dihydro-2H-spiro[benzo[5,6]azocino[4,3-g]indolizine-3,1′-cyclopropane]-1,10(4H,12H)-dione] | – | – | > 10000 | 1.19 | 2.39
2 | O=C1NC2(CC2)Cc2ccc(Cl)c(F)c2-c2cc(=O)n3c(c21)CC[C@@H]3c1ncc(-c2ccc3snnc3c2)[nH]1 (stereo in doubt) [Compound 30, (R*)-12-(5-(benzo[d][1,2,3]thiadiazol-5-yl)-1H-imidazol-2-yl)-7-chloro-8-fluoro-13,14-dihydro-2H-spiro[benzo[5,6]azocino[4,3-g]indolizine-3,1′-cyclopropane]-1,10(4H,12H)-dione] | 0.0057 | 0.0029 | 330 | – | –
3 | Nc1ccc(-c2cnc([C@@H]3CCc4c5c(cc(=O)n43)-c3c(ccc(Cl)c3F)CC3(CCCC3)NC5=O)[nH]2)c(F)n1 (stereo in doubt) [Compound 35, (S*)-12-(5-(6-amino-2-fluoropyridin-3-yl)-1H-imidazol-2-yl)-7-chloro-8-fluoro-13,14-dihydro-2H-spiro[benzo[5,6]azocino[4,3-g]indolizine-3,1′-cyclopentane]-1,10(4H,12H)-dione] | 0.0004 | 0.0002 | 90 | – | –
4 | CN1C(=O)c2c(cc(=O)n3c2CC[C@@H]3c2ncc(-c3ccc(N)nc3F)[nH]2)-c2c(ccc(Cl)c2F)CC12CC2 (stereo in doubt) [Compound 40, (R*)-12-(5-(6-amino-2-fluoropyridin-3-yl)-1H-imidazol-2-yl)-7-chloro-8-fluoro-2-methyl-13,14-dihydro-2H-spiro[benzo[5,6]azocino[4,3-g]indolizine-3,1′-cyclopropane]-1,10(4H,12H)-dione] | – | – | > 10000 | > 5 | > 10
5 | Cn1nncc1-c1cnc([C@@H]2CCc3c4c(cc(=O)n32)-c2c(ccc(Cl)c2F)CC2(CC2)NC4=O)[nH]1 (stereo in doubt) [Compound 42, (S*)-7-chloro-8-fluoro-12-(5-(1-methyl-1H-1,2,3-triazol-5-yl)-1H-imidazol-2-yl)-13,14-dihydro-2H-spiro[benzo[5,6]azocino[4,3-g]indolizine-3,1′-cyclopropane]-1,10(4H,12H)-dione] | 0.928 | 0.464 | > 10000 | – | –
6 | Cn1nncc1-c1cnc([C@@H]2CCc3c4c(cc(=O)n32)-c2c(ccc(Cl)c2F)CCNC4=O)[nH]1 (stereo in doubt) [Compound 44, (S*)-7-chloro-8-fluoro-12-(5-(1-methyl-1H-1,2,3-triazol-5-yl)-1H-imidazol-2-yl)-3,4,13,14-tetrahydrobenzo[5,6]azocino[4,3-g]indolizine-1,10(2H,12H)-dione] | – | – | > 10000 | > 5 | > 10
7 | Cn1nncc1-c1cnc([C@H]2CCc3c4c(cc(=O)n32)-c2c(ccc(Cl)c2F)CCNC4=O)[nH]1 (stereo in doubt) [Compound 45, (R*)-7-chloro-8-fluoro-12-(5-(1-methyl-1H-1,2,3-triazol-5-yl)-1H-imidazol-2-yl)-3,4,13,14-tetrahydrobenzo[5,6]azocino[4,3-g]indolizine-1,10(2H,12H)-dione] | – | – | > 10000 | 2.58 | 5.15
8 | Nc1ccc(-c2cnc([C@H]3CCc4c5c(cc(=O)n43)-c3c(ccc(Cl)c3F)CCNC5=O)[nH]2)c(Cl)n1 (stereo in doubt) [Compound 48, (R*)-12-(5-(6-amino-2-chloropyridin-3-yl)-1H-imidazol-2-yl)-7-chloro-8-fluoro-3,4,13,14-tetrahydrobenzo[5,6]azocino[4,3-g]indolizine-1,10(2H,12H)-dione] | 0.0023 | 0.0012 | 210 | – | –
9 | Cn1cncc1-c1cnc([C@@H]2CCc3c4c(cc(=O)n32)-c2c(ccc(Cl)c2F)CC2(CC2)NC4=O)[nH]1 (stereo in doubt) [Compound 50, (S*)-7-chloro-8-fluoro-12-(3′-methyl-3H,3′H-[4,4′-biimidazol]-2-yl)-13,14-dihydro-2H-spiro[benzo[5,6]azocino[4,3-g]indolizine-3,1′-cyclopropane]-1,10(4H,12H)-dione] | 0.301 | 0.15 | > 20000 | – | –

Now from value to molecule:

Row | IC50 (Factor XIa; [1]) [µM] | Ki (Factor XIa) [µM] | IC50 (human plasma kallikrein) [nM] | Ki (Factor XIa; [2]) [µM] | IC50 (Factor XIa; [3]) [µM] | Compound
10 | 0.0005 | 0.0003 | 70 | – | – | O=C1NC2(CC2)Cc2ccc(Cl)c(F)c2-c2cc(=O)n3c(c21)CC[C@@H]3c1ncc(-c2ccc3scnc3c2)[nH]1 (stereo in doubt) [Compound 26, (R*)-12-(5-(benzo[d]thiazol-5-yl)-1H-imidazol-2-yl)-7-chloro-8-fluoro-13,14-dihydro-2H-spiro[benzo[5,6]azocino[4,3-g]indolizine-3,1′-cyclopropane]-1,10(4H,12H)-dione]
11 | – | 0.588 | > 10000 | – | 1.18 | O=C1NC2(CC2)Cc2ccc(Cl)c(F)c2-c2cc(=O)n3c(c21)CC[C@H]3c1ncc(-c2ccc3snnc3c2)[nH]1 (stereo in doubt) [Compound 31, (S*)-12-(5-(benzo[d][1,2,3]thiadiazol-5-yl)-1H-imidazol-2-yl)-7-chloro-8-fluoro-13,14-dihydro-2H-spiro[benzo[5,6]azocino[4,3-g]indolizine-3,1′-cyclopropane]-1,10(4H,12H)-dione]
12 | 0.0007 | 0.0004 | 230 | – | – | Nc1ccc(-c2cnc([C@@H]3CCc4c5c(cc(=O)n43)-c3c(ccc(Cl)c3F)CC3(CCC3)NC5=O)[nH]2)c(F)n1 (stereo in doubt) [Compound 32, (S*)-12-(5-(6-amino-2-fluoropyridin-3-yl)-1H-imidazol-2-yl)-7-chloro-8-fluoro-13,14-dihydro-2H-spiro[benzo[5,6]azocino[4,3-g]indolizine-3,1′-cyclobutane]-1,10(4H,12H)-dione]
13 | 0.237 | 0.118 | > 10000 | – | – | Nc1ccc(-c2cnc([C@H]3CCc4c5c(cc(=O)n43)-c3c(ccc(Cl)c3F)CC3(CCC3)NC5=O)[nH]2)c(F)n1 (stereo in doubt) [Compound 33, (R*)-12-(5-(6-amino-2-fluoropyridin-3-yl)-1H-imidazol-2-yl)-7-chloro-8-fluoro-13,14-dihydro-2H-spiro[benzo[5,6]azocino[4,3-g]indolizine-3,1′-cyclobutane]-1,10(4H,12H)-dione]
14 | 0.0337 | 0.0169 | 6210 | – | – | Nc1ccc(-c2cnc([C@H]3CCc4c5c(cc(=O)n43)-c3c(ccc(Cl)c3F)CC3(CCCC3)NC5=O)[nH]2)c(F)n1 (stereo in doubt) [Compound 34, (R*)-12-(5-(6-amino-2-fluoropyridin-3-yl)-1H-imidazol-2-yl)-7-chloro-8-fluoro-13,14-dihydro-2H-spiro[benzo[5,6]azocino[4,3-g]indolizine-3,1′-cyclopentane]-1,10(4H,12H)-dione]
15 | 0.0086 | 0.0043 | > 10000 | – | – | CN1C(=O)c2c(cc(=O)n3c2CC[C@H]3c2ncc(-c3ccc(N)nc3F)[nH]2)-c2c(ccc(Cl)c2F)CC12CC2 (stereo in doubt) [Compound 41, (S*)-12-(5-(6-amino-2-fluoropyridin-3-yl)-1H-imidazol-2-yl)-7-chloro-8-fluoro-2-methyl-13,14-dihydro-2H-spiro[benzo[5,6]azocino[4,3-g]indolizine-3,1′-cyclopropane]-1,10(4H,12H)-dione]
16 | – | – | > 10000 | > 5 | > 10 | Cn1nncc1-c1cnc([C@H]2CCc3c4c(cc(=O)n32)-c2c(ccc(Cl)c2F)CC2(CC2)NC4=O)[nH]1 (stereo in doubt) [Compound 43, (R*)-7-chloro-8-fluoro-12-(5-(1-methyl-1H-1,2,3-triazol-5-yl)-1H-imidazol-2-yl)-13,14-dihydro-2H-spiro[benzo[5,6]azocino[4,3-g]indolizine-3,1′-cyclopropane]-1,10(4H,12H)-dione]
17 | – | – | > 10000 | 4.57 | 9.15 | Nc1ccc(-c2cnc([C@@H]3CCc4c5c(cc(=O)n43)-c3c(ccc(Cl)c3F)CCNC5=O)[nH]2)c(F)n1 (stereo in doubt) [Compound 46, (S*)-12-(5-(6-amino-2-fluoropyridin-3-yl)-1H-imidazol-2-yl)-7-chloro-8-fluoro-3,4,13,14-tetrahydrobenzo[5,6]azocino[4,3-g]indolizine-1,10(2H,12H)-dione]
18 | 0.005 | 0.0025 | 400 | – | – | Nc1ccc(-c2cnc([C@H]3CCc4c5c(cc(=O)n43)-c3c(ccc(Cl)c3F)CCNC5=O)[nH]2)c(F)n1 (stereo in doubt) [Compound 47, (R*)-12-(5-(6-amino-2-fluoropyridin-3-yl)-1H-imidazol-2-yl)-7-chloro-8-fluoro-3,4,13,14-tetrahydrobenzo[5,6]azocino[4,3-g]indolizine-1,10(2H,12H)-dione]
19 | – | – | > 10000 | 1.29 | 2.59 | Nc1ccc(-c2cnc([C@@H]3CCc4c5c(cc(=O)n43)-c3c(ccc(Cl)c3F)CCNC5=O)[nH]2)c(Cl)n1 (stereo in doubt) [Compound 49, (S*)-12-(5-(6-amino-2-chloropyridin-3-yl)-1H-imidazol-2-yl)-7-chloro-8-fluoro-3,4,13,14-tetrahydrobenzo[5,6]azocino[4,3-g]indolizine-1,10(2H,12H)-dione]
